Bridge positions count the residues as written; N and C are the ends. Peptide text beside a SMILES is read from it.
Test system: Escherichia coli W3110
Assay type: cell-based
Conditions: W3110

W3110 MIC [µg/mL] | SMILES
>256 | CC[C@H](C)[C@@H]1NC(=O)[C@H](CC(N)=O)NC(=O)[C@H]([C@@H](C)CC)NC(=O)[C@H](CCCCN)NC(=O)[C@H](C(C)C)NC(=O)[C@H](CCCNC(=N)N)NC(=O)[C@@H](N)CSSC[C@@H](C(=O)O)NC(=O)[C@H](CCC(=O)O)NC(=O)[C@H](C(C)C)NC(=O)[C@H](CCC(=O)O)NC(=O)[C@H](CC(C)C)NC(=O)[C@H](CCCNC(=N)N)NC(=O)[C@H](C(C)C)NC(=O)[C@H](CCCNC(=N)N)NC(=O)[C@H](CCCNC(=N)N)NC(=O)[C@H](CO)NC(=O)CNC(=O)[C@H](CC(N)=O)NC(=O)[C@H](CC(=O)O)NC1=O [SyRC-2] (H-CRVKINIDNGSRRVRLEVEC-OH; disulfide 1-20)
>256 | CC[C@H](C)[C@@H]1NC(=O)[C@H](CCCNC(=N)N)NC(=O)[C@H]([C@@H](C)CC)NC(=O)[C@H](CCCNC(=N)N)NC(=O)[C@@H](N)CSSC[C@@H](C(=O)O)NC(=O)[C@H](CCC(=O)O)NC(=O)[C@H](C(C)C)NC(=O)[C@H](CCC(=O)O)NC(=O)[C@H](CC(C)C)NC(=O)[C@H](CCCNC(=N)N)NC(=O)[C@H](C(C)C)NC(=O)[C@H]([C@@H](C)O)NC(=O)CNC(=O)CNC(=O)[C@H](CCCNC(=N)N)NC(=O)[C@H](CC(=O)O)NC(=O)[C@H](CC(N)=O)NC(=O)[C@H](C(C)C)NC(=O)[C@H](CC(N)=O)NC1=O [SyRC-4] (H-CRIRINVNDRGGTVRLEVEC-OH; disulfide 1-20)
>256 | CC[C@H](C)[C@@H]1NC(=O)[C@H](CC(=O)O)NC(=O)[C@H]([C@@H](C)CC)NC(=O)[C@H](CCCNC(=N)N)NC(=O)[C@H](C(C)C)NC(=O)[C@H](CCCNC(=N)N)NC(=O)[C@@H](N)CSSC[C@@H](C(=O)O)NC(=O)[C@H](CCC(N)=O)NC(=O)[C@H](CC(C)C)NC(=O)[C@H](CCC(N)=O)NC(=O)[C@H](CC(C)C)NC(=O)[C@H](CCCCN)NC(=O)[C@H](CC(C)C)NC(=O)[C@H](CCCNC(=N)N)NC(=O)[C@H](CCCNC(=N)N)NC(=O)[C@H](CCCNC(=N)N)NC(=O)CNC(=O)[C@H](CC(N)=O)NC(=O)[C@H](CC(N)=O)NC1=O [SyRC-5] (H-CRVRIDINNGRRRLKLQLQC-OH; disulfide 1-20)
>256 | CC[C@H](C)[C@@H]1NC(=O)[C@H](CC(N)=O)NC(=O)[C@H](C(C)C)NC(=O)[C@H](CCCCN)NC(=O)[C@H]([C@@H](C)CC)NC(=O)[C@H](CCCNC(=N)N)NC(=O)[C@@H](N)CSSC[C@@H](C(=O)O)NC(=O)[C@H](CCC(=O)O)NC(=O)[C@H](CC(C)C)NC(=O)[C@H](CCC(=O)O)NC(=O)[C@H](CC(C)C)NC(=O)[C@H](CCCCN)NC(=O)[C@H](C(C)C)NC(=O)[C@H]([C@@H](C)O)NC(=O)[C@H](CCCNC(=N)N)NC(=O)[C@H](CCCNC(=N)N)NC(=O)[C@H](CCCNC(=N)N)NC(=O)[C@H](CC(N)=O)NC(=O)[C@H](CC(N)=O)NC1=O [SyRC-6] (H-CRIKVNINNRRRTVKLELEC-OH; disulfide 1-20)
>256 | CC[C@H](C)[C@@H]1NC(=O)[C@H](CC(=O)O)NC(=O)[C@H](C(C)C)NC(=O)[C@H](CCCCN)NC(=O)[C@H]([C@@H](C)CC)NC(=O)[C@H](CCCNC(=N)N)NC(=O)[C@@H](N)CSSC[C@@H](C(=O)O)NC(=O)[C@H](CCC(=O)O)NC(=O)[C@H](CC(C)C)NC(=O)[C@H](CCC(N)=O)NC(=O)[C@H](CC(C)C)NC(=O)[C@H](CCCNC(=N)N)NC(=O)[C@H](C(C)C)NC(=O)[C@H](CCCNC(=N)N)NC(=O)CNC(=O)[C@H](CCCNC(=N)N)NC(=O)[C@H](CCCNC(=N)N)NC(=O)[C@H](CC(=O)O)NC(=O)[C@H](CC(=O)O)NC1=O [SyRC-7] (H-CRIKVDIDDRRGRVRLQLEC-OH; disulfide 1-20)
>256 | CC[C@H](C)[C@@H]1NC(=O)[C@H](CC(N)=O)NC(=O)[C@H](C(C)C)NC(=O)[C@H](CCCCN)NC(=O)[C@H]([C@@H](C)CC)NC(=O)[C@H](CCCNC(=N)N)NC(=O)[C@@H](N)CSSC[C@@H](C(=O)O)NC(=O)[C@H](CCC(=O)O)NC(=O)[C@H](CC(C)C)NC(=O)[C@H](CCC(=O)O)NC(=O)[C@H](CC(C)C)NC(=O)[C@H](CCCNC(=N)N)NC(=O)[C@H](CC(C)C)NC(=O)[C@H](CCCNC(=N)N)NC(=O)[C@H](CCCNC(=N)N)NC(=O)[C@H](CO)NC(=O)[C@H](CCCNC(=N)N)NC(=O)[C@H](CC(=O)O)NC(=O)[C@H](CC(=O)O)NC1=O [SyRC-8] (H-CRIKVNIDDRSRRLRLELEC-OH; disulfide 1-20)
>256 | CC[C@H](C)[C@@H]1NC(=O)[C@H](CCCNC(=N)N)NC(=O)[C@H](C(C)C)NC(=O)[C@H](CCCNC(=N)N)NC(=O)[C@@H](N)CSSC[C@@H](C(=O)O)NC(=O)[C@H](CCC(N)=O)NC(=O)[C@H](C(C)C)NC(=O)[C@H](CCC(N)=O)NC(=O)[C@H](CC(C)C)NC(=O)[C@H](CCCNC(=N)N)NC(=O)[C@H](C(C)C)NC(=O)[C@H]([C@@H](C)O)NC(=O)CNC(=O)[C@H](CO)NC(=O)CNC(=O)[C@H](CC(=O)O)NC(=O)[C@H](CC(N)=O)NC(=O)[C@H](C(C)C)NC(=O)[C@H](CC(N)=O)NC1=O [SyRC-10] (H-CRVRINVNDGSGTVRLQVQC-OH; disulfide 1-20)
>256 | CC[C@H](C)[C@@H]1NC(=O)[C@H](CCCNC(=N)N)NC(=O)[C@H](C(C)C)NC(=O)[C@H](CCCNC(=N)N)NC(=O)[C@@H](N)CSSC[C@@H](C(=O)O)NC(=O)[C@H](CCC(N)=O)NC(=O)[C@H](C(C)C)NC(=O)[C@H](CCC(N)=O)NC(=O)[C@H](CC(C)C)NC(=O)[C@H](CCCCN)NC(=O)[C@H](CC(C)C)NC(=O)[C@H]([C@@H](C)O)NC(=O)CNC(=O)CNC(=O)[C@H](CCCNC(=N)N)NC(=O)[C@H](CC(N)=O)NC(=O)[C@H](CC(=O)O)NC(=O)[C@H](C(C)C)NC(=O)[C@H](CC(N)=O)NC1=O [SyRC-11] (H-CRVRINVDNRGGTLKLQVQC-OH; disulfide 1-20)
>256 | CC[C@H](C)[C@@H]1NC(=O)[C@H](CCCNC(=N)N)NC(=O)[C@H]([C@@H](C)CC)NC(=O)[C@H](CCCNC(=N)N)NC(=O)[C@@H](N)CSSC[C@@H](C(=O)O)NC(=O)[C@H](CCC(=O)O)NC(=O)[C@H](C(C)C)NC(=O)[C@H](CCC(N)=O)NC(=O)[C@H](CC(C)C)NC(=O)[C@H](CCCNC(=N)N)NC(=O)[C@H](C(C)C)NC(=O)[C@H]([C@@H](C)O)NC(=O)CNC(=O)CNC(=O)CNC(=O)[C@H](CC(N)=O)NC(=O)[C@H](CC(=O)O)NC(=O)[C@H](C(C)C)NC(=O)[C@H](CC(N)=O)NC1=O [SyRC-12] (H-CRIRINVDNGGGTVRLQVEC-OH; disulfide 1-20)
>256 | CC[C@H](C)[C@@H]1NC(=O)[C@H](CCCNC(=N)N)NC(=O)[C@H](C(C)C)NC(=O)[C@H](CCCNC(=N)N)NC(=O)[C@@H](N)CSSC[C@@H](C(=O)O)NC(=O)[C@H](CCC(=O)O)NC(=O)[C@H](C(C)C)NC(=O)[C@H](CCC(N)=O)NC(=O)[C@H](CC(C)C)NC(=O)[C@H](CCCCN)NC(=O)[C@H](CC(C)C)NC(=O)[C@H](CCCNC(=N)N)NC(=O)CNC(=O)[C@H](CO)NC(=O)[C@H](CCCNC(=N)N)NC(=O)[C@H](CC(N)=O)NC(=O)[C@H](CC(N)=O)NC(=O)[C@H](C(C)C)NC(=O)[C@H](CC(N)=O)NC1=O [SyRC-14] (H-CRVRINVNNRSGRLKLQVEC-OH; disulfide 1-20)

Source: PMC9833666, “Designing and identifying β-hairpin peptide macrocycles with antibiotic potential” (Science Advances, 2023)
